Test results taken from patent US6809065B2, “Herbicide containing substituted pyrazole derivative as active ingredient” (SDS Biotech K.K., priority 2001, dated 2004).

Columns and labels:
Echinochloa spp. = experiment: Paddy field treatment (Test Example 3); format: in vivo, Echinochloa crusgalli; details: paddy pot, submerged 4 cm, dropped on water surface 10th day after transplantation, 1 kg active ingredient per hectare, evaluated 21st day
Summary of the method: (§1)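 Index scores for herbicidal effect were read 21 days after treatment, higher meaning stronger effect. Treatment was a water-diluted wettable powder dropped onto flooded paddy soil at 1 kg active ingredient per hectare, 10 days after rice transplantation.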

Chenopodium album [1] = experiment: Upland field foliage treatment (Test Example 1); format: in vivo; details: foliage treatment 14th day after sowing, wettable powder, 1 kg active ingredient per hectare, evaluated 21st day after application
Summary of the method: (§2)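 Foliage application took place two weeks after sowing, at an active-ingredient rate of 1 kg/ha from a water-diluted wettable powder. Rating followed on the 21st day after application, using an index scale on which crop values rise as injury increases.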

Digitaria adscendens [2] = experiment: Upland field foliage treatment (Test Example 1); format: in vivo; details: foliage treatment 14th day after sowing, wettable powder, 1 kg active ingredient per hectare, evaluated 21st day after application
Summary of the method: as §2

Stellaria media [3] = experiment: Upland field foliage treatment (Test Example 1); format: in vivo; details: foliage treatment 14th day after sowing, wettable powder, 1 kg active ingredient per hectare, evaluated 21st day after application
Summary of the method: as §2

Setaria viridis [4] = experiment: Upland field foliage treatment (Test Example 1); format: in vivo; details: foliage treatment 14th day after sowing, wettable powder, 1 kg active ingredient per hectare, evaluated 21st day after application
Summary of the method: as §2

Ammannia multiflora = experiment: Paddy field treatment (Test Example 3); format: in vivo; details: paddy pot, submerged 4 cm, dropped on water surface 10th day after transplantation, 1 kg active ingredient per hectare, evaluated 21st day
Summary of the method: as §1

Monochoria vaginalis = experiment: Paddy field treatment (Test Example 3); format: in vivo; details: paddy pot, submerged 4 cm, dropped on water surface 10th day after transplantation, 1 kg active ingredient per hectare, evaluated 21st day
Summary of the method: as §1

Scirpus juncoides = experiment: Paddy field treatment (Test Example 3); format: in vivo; details: paddy pot, submerged 4 cm, dropped on water surface 10th day after transplantation, 1 kg active ingredient per hectare, evaluated 21st day
Summary of the method: as §1

[5] = test system: wheat (Triticum aestivum); experiment: Upland field foliage treatment (Test Example 1), crop; format: in vivo; details: foliage treatment 14th day after sowing, 1 kg active ingredient per hectare, evaluated 21st day, lower index = higher safety
Summary of the method: as §2

soybean (Glycine max) [6] = experiment: as above; format: in vivo; details: foliage treatment 14th day after sowing, 1 kg active ingredient per hectare, evaluated 21st day, lower index = higher safety
Summary of the method: as §2

[7] = test system: wheat (Triticum aestivum); experiment: Upland soil treatment (Test Example 2), crop; format: in vivo; details: soil surface treatment next day after sowing, 1 kg active ingredient per hectare, evaluated 21st day, lower index = higher safety
Summary of the method: (§3)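 Index rating at day 21 after a single pre-emergence soil-surface application, 1 kg a.i./ha, made the day after sowing in upland soil; for crops a lower index indicates higher safety.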

soybean (Glycine max) [8] = experiment: Upland soil treatment (Test Example 2), crop; format: in vivo; details: soil surface treatment next day after sowing, 1 kg active ingredient per hectare, evaluated 21st day, lower index = higher safety
Summary of the method: as §3

Chenopodium album [9] = experiment: Upland soil treatment (Test Example 2); format: in vivo; details: soil surface treatment next day after sowing, wettable powder, 1 kg active ingredient per hectare, evaluated 21st day after application
Summary of the method: as §3

Digitaria adscendens [10] = experiment: Upland soil treatment (Test Example 2); format: in vivo; details: soil surface treatment next day after sowing, wettable powder, 1 kg active ingredient per hectare, evaluated 21st day after application
Summary of the method: as §3

Stellaria media [11] = experiment: Upland soil treatment (Test Example 2); format: in vivo; details: soil surface treatment next day after sowing, wettable powder, 1 kg active ingredient per hectare, evaluated 21st day after application
Summary of the method: as §3

Setaria viridis [12] = experiment: Upland soil treatment (Test Example 2); format: in vivo; details: soil surface treatment next day after sowing, wettable powder, 1 kg active ingredient per hectare, evaluated 21st day after application
Summary of the method: as §3

[13] = test system: rice (Oryza sative, variety: Koshihikari); experiment: Paddy field treatment (Test Example 3), crop; format: in vivo, Oryza sativa; details: transplanted rice two-leaf period, water surface treatment 10th day after transplantation, 1 kg active ingredient per hectare, evaluated 21st day, lower index = higher safety
Summary of the method: as §1

Structure (SMILES)	Herbicidal activity Echinochloa spp. (Echinochloa spp.)	Herbicidal activity Chenopodium album (Chenopodium album [1])	Herbicidal activity Digitaria adscendens (Digitaria adscendens [2])	Herbicidal activity Stellaria media (Stellaria media [3])	Herbicidal activity Setaria viridis (Setaria viridis [4])	Herbicidal activity Ammannia multiflora (Ammannia multiflora)	Herbicidal activity Monochoria vaginalis (Monochoria vaginalis)	Herbicidal activity Scirpus juncoides (Scirpus juncoides)	Herbicidal activity Triticum aestivum [5]	Herbicidal activity Glycine max (soybean (Glycine max) [6])	Herbicidal activity Triticum aestivum [7]	Herbicidal activity Glycine max (soybean (Glycine max) [8])	Herbicidal activity Chenopodium album (Chenopodium album [9])	Herbicidal activity Digitaria adscendens (Digitaria adscendens [10])	Herbicidal activity Stellaria media (Stellaria media [11])	Herbicidal activity Setaria viridis (Setaria viridis [12])	Herbicidal activity Oryza sativa [13]
CCCc1c(Cl)c(-c2cccc(Cl)c2)nn1CC(=COC)C(=O)OC [Compound 40]	3 (herbicidal effect of not less than 50% by weight and less than 70% by weight)	4 (herbicidal effect of not less than 70% by weight and less than 90% by weight)	4 (herbicidal effect of not less than 70% by weight and less than 90% by weight)	4 (herbicidal effect of not less than 70% by weight and less than 90% by weight)	4 (herbicidal effect of not less than 70% by weight and less than 90% by weight)	3 (herbicidal effect of not less than 50% by weight and less than 70% by weight)	3 (herbicidal effect of not less than 50% by weight and less than 70% by weight)	3 (herbicidal effect of not less than 50% by weight and less than 70% by weight)	0 (herbicidal effect of not less than 0% by weight and less than 10% by weight)	0 (herbicidal effect of not less than 0% by weight and less than 10% by weight)	0 (herbicidal effect of not less than 0% by weight and less than 10% by weight)	0 (herbicidal effect of not less than 0% by weight and less than 10% by weight)	4 (herbicidal effect of not less than 70% by weight and less than 90% by weight)	4 (herbicidal effect of not less than 70% by weight and less than 90% by weight)	4 (herbicidal effect of not less than 70% by weight and less than 90% by weight)	4 (herbicidal effect of not less than 70% by weight and less than 90% by weight)	0 (herbicidal effect of not less than 0% by weight and less than 10% by weight)
COC=C(Cn1nc(-c2ccc(Cl)cc2Cl)c(Cl)c1C)C(=O)OC [Compound 21]	5 (herbicidal effect of not less than 90% by weight)	5 (herbicidal effect of not less than 90% by weight)	5 (herbicidal effect of not less than 90% by weight)	5 (herbicidal effect of not less than 90% by weight)	4 (herbicidal effect of not less than 70% by weight and less than 90% by weight)	5 (herbicidal effect of not less than 90% by weight)	5 (herbicidal effect of not less than 90% by weight)	4 (herbicidal effect of not less than 70% by weight and less than 90% by weight)	0 (herbicidal effect of not less than 0% by weight and less than 10% by weight)	1 (herbicidal effect of not less than 10% by weight and less than 30% by weight)	0 (herbicidal effect of not less than 0% by weight and less than 10% by weight)	0 (herbicidal effect of not less than 0% by weight and less than 10% by weight)	4 (herbicidal effect of not less than 70% by weight and less than 90% by weight)	4 (herbicidal effect of not less than 70% by weight and less than 90% by weight)	4 (herbicidal effect of not less than 70% by weight and less than 90% by weight)	4 (herbicidal effect of not less than 70% by weight and less than 90% by weight)	0 (herbicidal effect of not less than 0% by weight and less than 10% by weight)
COC=C(Cn1nc(-c2ccccc2)c(Cl)c1SC)C(=O)OC [Compound 41]	4 (herbicidal effect of not less than 70% by weight and less than 90% by weight)	4 (herbicidal effect of not less than 70% by weight and less than 90% by weight)	4 (herbicidal effect of not less than 70% by weight and less than 90% by weight)	4 (herbicidal effect of not less than 70% by weight and less than 90% by weight)	4 (herbicidal effect of not less than 70% by weight and less than 90% by weight)	3 (herbicidal effect of not less than 50% by weight and less than 70% by weight)	3 (herbicidal effect of not less than 50% by weight and less than 70% by weight)	3 (herbicidal effect of not less than 50% by weight and less than 70% by weight)	0 (herbicidal effect of not less than 0% by weight and less than 10% by weight)	0 (herbicidal effect of not less than 0% by weight and less than 10% by weight)	0 (herbicidal effect of not less than 0% by weight and less than 10% by weight)	0 (herbicidal effect of not less than 0% by weight and less than 10% by weight)	4 (herbicidal effect of not less than 70% by weight and less than 90% by weight)	4 (herbicidal effect of not less than 70% by weight and less than 90% by weight)	4 (herbicidal effect of not less than 70% by weight and less than 90% by weight)	4 (herbicidal effect of not less than 70% by weight and less than 90% by weight)	0 (herbicidal effect of not less than 0% by weight and less than 10% by weight)
COC=C(Cn1nc(-c2cccc(C)c2)c(Br)c1C)C(=O)OC [Compound 26]	5 (herbicidal effect of not less than 90% by weight)	5 (herbicidal effect of not less than 90% by weight)	5 (herbicidal effect of not less than 90% by weight)	5 (herbicidal effect of not less than 90% by weight)	4 (herbicidal effect of not less than 70% by weight and less than 90% by weight)	5 (herbicidal effect of not less than 90% by weight)	5 (herbicidal effect of not less than 90% by weight)	4 (herbicidal effect of not less than 70% by weight and less than 90% by weight)	0 (herbicidal effect of not less than 0% by weight and less than 10% by weight)	1 (herbicidal effect of not less than 10% by weight and less than 30% by weight)	0 (herbicidal effect of not less than 0% by weight and less than 10% by weight)	0 (herbicidal effect of not less than 0% by weight and less than 10% by weight)	4 (herbicidal effect of not less than 70% by weight and less than 90% by weight)	4 (herbicidal effect of not less than 70% by weight and less than 90% by weight)	4 (herbicidal effect of not less than 70% by weight and less than 90% by weight)	4 (herbicidal effect of not less than 70% by weight and less than 90% by weight)	0 (herbicidal effect of not less than 0% by weight and less than 10% by weight)
